Patent publication US12122766B2, “3-azabicyclo[3,1,1]heptane derivative and pharmaceutical composition including same” (LG CHEM, LTD., priority 2018, dated 2024)

These compounds were tested against T1, Ketohexokinase (KHK) (Homo sapiens, UniProt P50053) (assay: Activity measurement of ketohexokinase inhibitor in vitro (Transcreener ADP2 TR-FRET Red Assay)). Details: purified His-tagged KHK expressed in E. coli; 30 min preincubation with inhibitor, 15 min reaction with ATP and fructose; ADP by TR-FRET (665/615 ratio).
T1 construct: His tag; made in house; host or cells: E. coli
T1 sequence (P50053 1-298): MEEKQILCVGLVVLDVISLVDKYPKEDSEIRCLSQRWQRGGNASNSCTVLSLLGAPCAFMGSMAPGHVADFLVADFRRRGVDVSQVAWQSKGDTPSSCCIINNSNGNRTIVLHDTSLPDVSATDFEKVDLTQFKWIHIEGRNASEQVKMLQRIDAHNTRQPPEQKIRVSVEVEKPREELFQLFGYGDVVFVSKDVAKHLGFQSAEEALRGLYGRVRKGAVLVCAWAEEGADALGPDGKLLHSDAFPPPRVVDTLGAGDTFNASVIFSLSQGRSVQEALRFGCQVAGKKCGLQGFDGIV
Type: biochemical
Experimental: Ketohexokinase (KHK) was expressed in E. coli, and was purified using His tag. In order to measure the activity of the purified KHK, Transcreener ADP2 TR-FRET Red Assay kit of BellBrook Labs was used. A method of measuring the amount of ADP produced using TR-FRET after reacting a solution including appropriate concentrations of a KHK protein, ATP, and fructose for 15 minutes, was used. In order to observe the activity of a ketohexokinase (KHK) inhibitor, ketohexokinase (KHK) and an inhibitor with an appropriate concentration were reacted first for 30 minutes, and then, reacted with a solution include a substrate of ketohexokinase (KHK) for 15 minutes. Then, reaction for TR-FRET was conducted for 1 hour, and fluorescence was measured using Envision apparatus of PerkinElmer Co. The predetermined value of Envision apparatus was determined according to the optimization process of TR-FRET published by BellBrook Lab. The resultant value for each concentration of the ketohexokinase (KHK) inhibitor is determined by a ratio of 665 nm wavelength and 615 nm wavelength. IC50 is analyzed by measuring the 665/615 ratio value with respect to the concentration of each inhibitor and using a statistics software (Prizm). IC50 was represented by the concentration of the inhibitor, showing 50% of the maximum inhibition activity by the inhibitor.

Row | Compound | IC50
1 | C[C@H]1CCN1c1nc(N2C[C@H]3C[C@@H](C2)[C@H]3CC(=O)O)cc(C(F)(F)F)c1C#N [Example 3, 2-((1R,5S,6R)-3-(5-cyano-6-((S)-2-methylazetidine-1-yl)-4-(trifluoromethyl)pyridine-2-yl)-3-azabicyclo[3,1,1]heptane-6-yl)acetic Acid] | ≥ 1 µM
2 | N#Cc1c(C(F)(F)F)cc(N2C[C@H]3C[C@@H](C2)[C@@H]3CC(=O)O)nc1N1CCCC1 [Example 5, 2-((1R,5S,6R)-3-(5-cyano-6-(pyrrolidine-1-yl)-4-(trifluoromethyl)pyridine-2-yl)-3-azabicyclo[3,1,1]heptane-6-yl)acetic Acid] | ≤ 21.2 µM
3 | C[C@H]1CCN1c1nc(N2C[C@H]3C[C@@H](C2)[C@H]3CC(=O)O)cc(C(F)(F)F)n1 [Example 1, 2-((1R,5S,6R)-3-(2-((S)-2-methylazetidine-1-yl)-6-(trifluoromethyl)pyrimidine-4-yl)-3-azabicyclo[3,1,1]heptane-6-yl)acetic Acid] | ≥ 1 µM
4 | C[C@H]1CCN1c1nc(N2C[C@H]3C[C@@H](C2)[C@@H]3CC(=O)O)cc(C(F)(F)F)c1C#N [Example 4, 2-((1R,5S,6S)-3-(5-cyano-6-((S)-2-methylazetidine-1-yl)-4-(trifluoromethyl)pyridine-2-yl)-3-azabicyclo[3,1,1]heptane-6-yl)acetic Acid] | ≤ 21.2 µM
5 | C[C@H]1CCN1c1nc(N2C[C@H]3C[C@@H](C2)[C@@H]3CC(=O)O)cc(C(F)(F)F)n1 [Example 2, 2-((1R,5S,6S)-3-(2-((S)-2-methylazetidine-1-yl)-6-(trifluoromethyl)pyrimidine-4-yl)-3-azabicyclo[3,1,1]heptane-6-yl)acetic Acid] | ≤ 21.2 µM
